Patent publication EP4417602A1, “SUBSTITUTED PYRAZOLE CARBOXAMIDES, SALTS THEREOF AND THEIR USE AS HERBICIDALLY ACTIVE SUBSTANCES” (Bayer AG, priority 2023, dated 2024)

Assays:
BRSNW [1] = assay: F. Post-emergence effects on crop plants (Tables F); assay type: in vivo, Brassica napus; conditions: application rate 80 g/ha, crop plant
From the text: (§1) Seeds of mono- and dicotyledonous weed plants and crop plants were sown, in plastic or organic planting pots, in sandy loam, covered with soil and grown in a greenhouse under controlled growth conditions. 2 to 3 weeks after sowing, the test plants were sprayed in the single-leaf stage. The compounds according to the invention, formulated in form of wettable powders (WP) or as emulsifiable concentrates (EC), were sprayed onto the green plant parts as aqueous suspension or emulsion, with the addition of 0.5% of an additive, at an application rate of 6001 of water/ha (converted). The test plants were placed in the greenhouse for ca. 3 weeks under optimum growth conditions, and then the effect of the preparations was assessed visually in comparison with untreated controls (herbicidal effect in percent (%): 100% effect = plants have died off, 0% effect = as control plants). Tables F1 to F5 below show the effects of selected compounds of the general formula (I) according to table 1 on various crop plants and an application rate corresponding to 320 g/ha or below obtained by the experimental procedure mentioned above. Table […]: post-emergence activity at 320g/ha against ZEAMX in %

BRSNW [2] = assay: D. Pre-emergence effects on crop plants (Tables D); assay type: in vivo, Brassica napus; conditions: application rate 80 g/ha, crop plant
From the text: (§2) Seeds of mono- and dicotyledonous weed plants and crop plants were sown, in plastic or organic planting pots, in sandy loam and covered with soil. The compounds according to the invention, formulated in the form of wettable powders (WP) or as emulsifiable concentrates (EC), were applied to the surface of the covering soil as aqueous suspension or emulsion, with the addition of 0.5% of an additive, at an application rate of 6001 of water/ha (converted).
(§3) Following treatment, the pots were placed in a greenhouse and kept under optimum growth conditions for the test plants. The visual grading of the damage to the test plants was carried out after ca. 3 weeks in comparison to untreated controls (herbicidal effect in percent (%): 100% effect = plants have died off, 0% effect = as control plants).
(§4) Tables D1 to D5 below show the effects of various compounds of the general formula (I) according to Table 1 on various crop plants and an application rate corresponding to 320 g/ha or below obtained by the experimental procedure mentioned above in Biological Examples, Section C. Table D1a: pre-emergence activity at 320g/ha against ZEAMX in %

ECHCG [3] = assay: A. Herbicidal pre-emergence action on harmful plants (Tables A); assay type: in vivo, Echinochloa crus-galli; conditions: visual grading after ca. 3 weeks vs untreated controls, 100% = plants have died off, 0% = as control plants
In short: (§5)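 Values are visual percent damage relative to untreated controls, scored ca. 3 weeks after the compound was sprayed on the covering soil of sown pots (sandy loam) at rates up to 1280 g/ha, formulated as WP or EC with 0.5% additive.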

ORYZA [4] = assay: D. Pre-emergence effects on crop plants (Tables D); assay type: in vivo, Oryza sativa; conditions: crop plant; application rate 80 g/ha; Table D3b
From the text: as §2, §3, §4

MATIN = assay: A. Herbicidal pre-emergence action on harmful plants (Tables A); assay type: in vivo, Matricaria inodora; conditions: visual grading after ca. 3 weeks vs untreated controls, 100% = plants have died off, 0% = as control plants
In short: as §5

STEME = assay: as above; assay type: in vivo, Stellaria media; conditions: visual grading after ca. 3 weeks vs untreated controls, 100% = plants have died off, 0% = as control plants
In short: as §5

TRZAS = assay: F. Post-emergence effects on crop plants (Tables F); assay type: in vivo, Triticum aestivum; conditions: application rate 80 g/ha, crop plant
From the text: as §1

LOLRI [5] = assay: A. Herbicidal pre-emergence action on harmful plants (Tables A); assay type: in vivo, Lolium rigidum; conditions: visual grading after ca. 3 weeks vs untreated controls, 100% = plants have died off, 0% = as control plants
In short: as §5

ORYZA [6] = assay: F. Post-emergence effects on crop plants (Tables F); assay type: in vivo, Oryza sativa; conditions: application rate 80 g/ha, crop plant
From the text: as §1

GLXMA [7] = assay: D. Pre-emergence effects on crop plants (Tables D); assay type: in vivo, Glycine max; conditions: crop plant
From the text: as §2, §3, §4

GLXMA [8] = assay: F. Post-emergence effects on crop plants (Tables F); assay type: in vivo, Glycine max; conditions: application rate 320 g/ha, crop plant
From the text: as §1

SETVI = assay: A. Herbicidal pre-emergence action on harmful plants (Tables A); assay type: in vivo, Setaria viridis; conditions: visual grading after ca. 3 weeks vs untreated controls, 100% = plants have died off, 0% = as control plants
In short: as §5

VIOTR = assay: C. Herbicidal pre-emergence action, weed and crop plants (Tables C); assay type: in vivo, Viola tricolor; conditions: application rate 320 g/ha; Table C12a
From the text: (§6) Seeds of mono- and dicotyledonous weed plants and crop plants were sown, in plastic or organic planting pots, in sandy loam and covered with soil. The compounds according to the invention, formulated in the form of wettable powders (WP) or as emulsifiable concentrates (EC), were applied to the surface of the covering soil as aqueous suspension or emulsion, with the addition of 0.5% of an additive, at an application rate of 6001 of water/ha (converted). Following treatment, the pots were placed in a greenhouse and kept under optimum growth conditions for the test plants. The visual grading of the damage to the test plants was carried out after ca. 3 weeks in comparison to untreated controls (herbicidal effect in percent (%): 100% effect = plants have died off, 0% effect = as control plants). Tables C1 to C12 below show the effects of selected compounds of the general formula (I) according to table 1 on various harmful plants and an application rate corresponding to 320 g/ha or below obtained by the experimental procedure mentioned above. Table C1: pre-emergence activity at 320g/ha against KCHSC in %

LOLRI [9] = assay: as above; assay type: in vivo, Lolium rigidum; conditions: application rate 320 g/ha; Table C7a
From the text: as §6

ZEAMX = assay: F. Post-emergence effects on crop plants (Tables F); assay type: in vivo, Zea mays; conditions: application rate 80 g/ha, crop plant
From the text: as §1

POAAN [10] = assay: A. Herbicidal pre-emergence action on harmful plants (Tables A); assay type: in vivo, Poa annua
In short: as §5

ECHCG [11] = assay: C. Herbicidal pre-emergence action, weed and crop plants (Tables C); assay type: in vivo, Echinochloa crus-galli; conditions: application rate 320 g/ha; Table C6a
From the text: as §6

DIGSA [12] = assay: as above; assay type: in vivo, Digitaria sanguinalis
From the text: as §6

ABUTH = assay: A. Herbicidal pre-emergence action on harmful plants (Tables A); assay type: in vivo, Abutilon theophrasti; conditions: application rate 1280 g/ha; visual grading after ca. 3 weeks vs untreated controls; 100% = plants have died off, 0% = as control plants
From the text: (§7) Seeds of mono- and dicotyledonous weed plants were sown in plastic pots (double sowings with one species of mono- and one species of dicotyledonous weed plants per pot), in sandy loam, and covered with soil. The compounds according to the invention, formulated in the form of wettable powders (WP) or as emulsifiable concentrates (EC), were applied to the surface of the covering soil as aqueous suspension or emulsion, with the addition of 0.5% of an additive, at an application rate of 6001 of water per hectare (converted). Following treatment, the pots were placed in a greenhouse and kept under optimum growth conditions for the test plants. The visual grading of the damage to the test plants was carried out after ca. 3 weeks in comparison to untreated controls (herbicidal effect in percent (%): 100% effect = plants have died off, 0% effect = as control plants). Tables A1 to A12, below, show the effects of selected compounds of the general formula (I) according to table 1 on various harmful plants and an application rate corresponding to 1280 g/ha or below obtained by the experimental procedure mentioned above. Table A1: pre-emergence activity at 1280g/ha against ABUTH in %

ALOMY = assay: as above; assay type: in vivo, Alopecurus myosuroides
In short: as §5

ECHCG [13] = assay: B. Herbicidal post-emergence action on harmful plants (Tables B); assay type: in vivo, Echinochloa crus-galli; conditions: application rate 1280 g/ha; Table B2a
In short: (§8)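 Greenhouse weeds grown in sandy loam were sprayed post-emergence at the one-leaf stage, 2-3 weeks after sowing. Compounds were applied as WP or EC in water with 0.5% additive at 600 L/ha, at 1280 g/ha or below. Visual damage was rated after about 3 weeks versus untreated plants (0-100%).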

VERPE = assay: A. Herbicidal pre-emergence action on harmful plants (Tables A); assay type: in vivo, Veronica persica; conditions: application rate 1280 g/ha; Table A11
From the text: as §7

DIGSA [14] = assay: as above; assay type: in vivo, Digitaria sanguinalis
In short: as §5

AMARE = assay: as above; assay type: in vivo, Amaranthus retroflexus
In short: as §5

POAAN [15] = assay: B. Herbicidal post-emergence action on harmful plants (Tables B); assay type: in vivo, Poa annua
In short: as §8

[16] = application rate 80 g/ha, Table A7c
[17] = application rate 320 g/ha, Table A7b
[18] = application rate 1280 g/ha, visual grading after ca. 3 weeks vs untreated controls, 100% = plants have died off, 0% = as control plants

COCc1nn(C)cc1C(=O)N1CCCC1Cc1cc(F)ccc1F (racemic) [Example I-001]
post-emergence activity against BRSNW in % (BRSNW [1]): 10% | pre-emergence activity against BRSNW in % (BRSNW [2]): 0% | pre-emergence activity against ECHCG (ECHCG [3]; application rate 320 g/ha): 100% | pre-emergence activity against ECHCG (ECHCG [3]; application rate 1280 g/ha): 100% | pre-emergence activity against ORYZA (ORYZA [4]): 20% | pre-emergence activity against MATIN (MATIN; application rate 1280 g/ha): 90% | pre-emergence activity against STEME (STEME; application rate 320 g/ha): 90% | pre-emergence activity against STEME (STEME; application rate 1280 g/ha): 90% | post-emergence activity against TRZAS in % (TRZAS): 10% | pre-emergence activity against LOLRI (LOLRI [5]; application rate 1280 g/ha): 100% | post-emergence activity against ORYZA in % (ORYZA [6]): 0% | pre-emergence activity against GLXMA (GLXMA [7]; application rate 80 g/ha, Table D4b): 0% | pre-emergence activity against GLXMA (GLXMA [7]; application rate 320 g/ha, Table D4a): 20% | post-emergence activity against GLXMA in % (GLXMA [8]): 20% | pre-emergence activity against SETVI (SETVI; application rate 320 g/ha): 90% | pre-emergence activity against SETVI (SETVI; application rate 1280 g/ha): 100% | pre-emergence activity against VIOTR (VIOTR): 80% | pre-emergence activity against LOLRI (LOLRI [9]): 80% | post-emergence activity against ZEAMX in % (ZEAMX): 0% | pre-emergence activity against POAAN (POAAN [10]; [16]): 100% | pre-emergence activity against POAAN (POAAN [10]; [17]): 100% | pre-emergence activity against POAAN (POAAN [10]; [18]): 100% | pre-emergence activity against ECHCG (ECHCG [11]): 90% | pre-emergence activity against DIGSA (DIGSA [12]; application rate 80 g/ha, Table C5b): 90% | pre-emergence activity against DIGSA (DIGSA [12]; application rate 320 g/ha, Table C5a): 100%

COCc1nn(C)cc1C(=O)N1CCCC1Cc1cc(F)ccc1F (single isomer, unassigned) [Example I-071]
pre-emergence activity against ABUTH (ABUTH): 90% | pre-emergence activity against ALOMY (ALOMY; application rate 320 g/ha, Table A9b): 90% | pre-emergence activity against ALOMY (ALOMY; application rate 1280 g/ha, Table A9a): 90% | pre-emergence activity against ECHCG (ECHCG [3]; application rate 80 g/ha): 90% | pre-emergence activity against ECHCG (ECHCG [3]; application rate 320 g/ha): 100% | pre-emergence activity against ECHCG (ECHCG [3]; application rate 1280 g/ha): 100% | post-emergence activity against ECHCG (ECHCG [13]): 90% | pre-emergence activity against MATIN (MATIN; application rate 320 g/ha): 90% | pre-emergence activity against MATIN (MATIN; application rate 1280 g/ha): 90% | pre-emergence activity against VERPE (VERPE): 90% | pre-emergence activity against STEME (STEME; application rate 320 g/ha): 90% | pre-emergence activity against STEME (STEME; application rate 1280 g/ha): 90% | pre-emergence activity against DIGSA (DIGSA [14]; application rate 80 g/ha, Table A12c): 90% | pre-emergence activity against DIGSA (DIGSA [14]; application rate 320 g/ha, Table A12b): 100% | pre-emergence activity against DIGSA (DIGSA [14]; application rate 1280 g/ha, Table A12a): 100% | pre-emergence activity against LOLRI (LOLRI [5]; application rate 80 g/ha): 90% | pre-emergence activity against LOLRI (LOLRI [5]; application rate 320 g/ha): 100% | pre-emergence activity against LOLRI (LOLRI [5]; application rate 1280 g/ha): 100% | pre-emergence activity against SETVI (SETVI; application rate 80 g/ha): 90% | pre-emergence activity against SETVI (SETVI; application rate 320 g/ha): 90% | pre-emergence activity against SETVI (SETVI; application rate 1280 g/ha): 90% | pre-emergence activity against AMARE (AMARE; application rate 320 g/ha, Table A8b): 90% | pre-emergence activity against AMARE (AMARE; [18]): 90% | post-emergence activity against POAAN (POAAN [15]; application rate 320 g/ha, Table B7b): 90% | post-emergence activity against POAAN (POAAN [15]; application rate 1280 g/ha, Table B7a): 90% | pre-emergence activity against POAAN (POAAN [10]; [16]): 100% | pre-emergence activity against POAAN (POAAN [10]; [17]): 100% | pre-emergence activity against POAAN (POAAN [10]; [18]): 100%
